3 compounds from ChEMBL document CHEMBL4308894, “Synthesis and evaluation of biological activity for dual-acting antibiotics on the basis of azithromycin and glycopeptides” (Bioorg Med Chem Lett, 2019) can be followed below.

In brackets after ≈: the same amount, converted by molar mass. Activity calls are given as the source filed them. The calls are words filed in the database; no cut-off is given here.

Data set [1] concerns Staphylococcus aureus. Description: Antibacterial activity against Staphylococcus aureus ATCC 25923 by micro dilution method. Type of data set: functional.
The subject of data set [2] is Staphylococcus epidermidis. Nature of the data set: Antibacterial activity against Staphylococcus epidermidis isolate 533 by micro dilution method. Type of data set: functional.
For data set [3], the system named is Staphylococcus aureus. Description: Antibacterial activity against Staphylococcus aureus isolate 10 by micro dilution method. The data set is classed as functional.
The test system of data set [4] is Staphylococcus aureus. Nature of the data set: Antibacterial activity against Staphylococcus aureus isolate 3797 by micro dilution method. The data set is classed as functional.
In data set [5] the test system is Staphylococcus aureus. Description: Antibacterial activity against Staphylococcus aureus isolate 3798 by micro dilution method. The data set is classed as functional.
Data set [6] has as its system Staphylococcus aureus. Description: Antibacterial activity against Staphylococcus aureus isolate 1025 by micro dilution method. The data set is classed as functional.
Data set [7] deals with Enterococcus faecium. Description: Antibacterial activity against Enterococcus faecium isolate 568 by micro dilution method. Type of data set: functional.
For data set [8], the system named is Enterococcus faecium. Description: Antibacterial activity against Enterococcus faecium isolate 569 by micro dilution method. Type of data set: functional.
The next data set has as its system Enterococcus faecalis. Nature of the data set: Antibacterial activity against Enterococcus faecalis isolate 560 by micro dilution method. Type of data set: functional.
Another data set concerns Streptococcus pneumoniae. Description: Antibacterial activity against Streptococcus pneumoniae ATCC 49619 by micro dilution method. The data set is classed as functional.
The subject of a further data set is Enterococcus gallinarum. Nature of the data set: Antibacterial activity against Streptococcus gallinarum ATCC 35038 by micro dilution method. The data set is classed as functional.
For another data set, the system named is Streptococcus agalactiae. Nature of the data set: Antibacterial activity against Streptococcus agalactiae isolate 52 by micro dilution method. Type of data set: functional.
In data set [9] the test system is Escherichia coli. Description: Antibacterial activity against Escherichia coli ATCC 25922 by micro dilution method. The data set is classed as functional.
A further data set has as its system Salmonella typhimurium. Nature of the data set: Antibacterial activity against Salmonella choleraesuis ATCC 14028 by micro dilution method. The settings on record: Salmonella enterica. Type of data set: functional, Salmonella enterica subsp. enterica serovar Typhimurium.
For the next data set, the system named is Klebsiella pneumoniae. Description: Antibacterial activity against Klebsiella pneumoniae ATCC 13883 by micro dilution method. Type of data set: functional.
Data set [10] relates to Escherichia coli. Description: Induction of translation arrest in tolC-deficient Escherichia coli harboring pRFPCER-TrpL2A assessed as increase in pRFPCER-TrpL2A reporter activity at 10 mg/ml after overnight incubation by dual fluorescent-reporter gene assay. The data set is classed as functional, organism-based.
The nature of data set [11]: Half life in human serum. The data set is classed as ADME, cell-free.
Data set [12] has as its system Staphylococcus aureus. Nature of the data set: Antibacterial activity against Staphylococcus aureus isolate 10 infected in iv dosed C57BL/6 mouse measured for 10 days. Type of data set: functional. The settings on record: isolate 10, iv, 240 h.
Data set [13] relates to Staphylococcus aureus. Nature of the data set: Antibacterial activity against Staphylococcus aureus isolate 10 infected in C57BL/6 mouse assessed as survival rate at 2.5 mg/kg, iv measured for 10 days (reference value: 0%). Type of data set: functional. Conditions: isolate 10, iv, 240 h.
Data set [14] relates to Staphylococcus aureus. Nature of the data set: Antibacterial activity against Staphylococcus aureus isolate 10 infected in C57BL/6 mouse assessed as survival rate at 3.5 mg/kg, iv measured for 10 days (reference value: 0%). Type of data set: functional. Conditions: isolate 10, iv, 240 h.
The test system of data set [15] is Staphylococcus aureus. Description: Antibacterial activity against Staphylococcus aureus isolate 10 infected in C57BL/6 mouse assessed as survival rate at 4.5 mg/kg, iv measured for 10 days (reference value: 0%). Type of data set: functional. The settings on record: isolate 10, iv, 240 h.
The subject of data set [16] is Staphylococcus aureus. Description: Antibacterial activity against Staphylococcus aureus isolate 10 infected in C57BL/6 mouse assessed as survival rate at 5.5 mg/kg, iv measured for 10 days (reference value: 0%). The data set is classed as functional. Conditions: isolate 10, iv, 240 h.
For data set [17], the system named is Staphylococcus aureus. Nature of the data set: Antibacterial activity against Staphylococcus aureus isolate 10 infected in C57BL/6 mouse assessed as survival rate at 6.5 mg/kg, iv measured for 10 days (reference value: 0%). The data set is classed as functional. The settings on record: isolate 10, iv, 240 h.
For data set [18], the system named is Staphylococcus aureus. Nature of the data set: Antibacterial activity against Staphylococcus aureus isolate 10 infected in C57BL/6 mouse assessed as survival rate at 7.5 mg/kg, iv measured for 10 days (reference value: 0%). The data set is classed as functional. Conditions: isolate 10, iv, 240 h.
Data set [19] is described as follows: Elimination half life in patient with normal creatinine clearance. Type of data set: ADME. Conditions: human, in vivo; read-out: beta t1/2.

Consider `CC[C@H]1OC(=O)[C@H](C)[C@@H](O[C@H]2C[C@@](C)(OC)[C@@H](O)[C@H](C)O2)[C@H](C)[C@@H](O[C@@H]2O[C@H](C)C[C@H](N(C)C)[C@H]2O)[C@](C)(O)C[C@@H](C)CN(C)[C@H](C)[C@@H](O)[C@]1(C)O` [AZITHROMYCIN], for which the MIC against Staphylococcus aureus [1] is 1 µg/mL (≈ 1.34 µM); in data set [2], 2 µg/mL (≈ 2.67 µM); against Staphylococcus aureus [3] it was 1 µg/mL (≈ 1.34 µM); against Staphylococcus aureus [4], above 32 µg/mL; in the data set on Staphylococcus aureus [5], above 32 µg/mL; against Staphylococcus aureus [6], 16 µg/mL (≈ 21.4 µM). Besides, the MIC in the data set on Enterococcus faecium [7] is 8 µg/mL (≈ 10.7 µM); against Enterococcus faecium [8], 8 µg/mL (≈ 10.7 µM); with Enterococcus faecalis, above 32 µg/mL; against Streptococcus pneumoniae, 8 µg/mL (≈ 10.7 µM); with Enterococcus gallinarum it was 4 µg/mL (≈ 5.34 µM); against Streptococcus agalactiae, above 32 µg/mL. The MIC was found to be 8 µg/mL (≈ 10.7 µM) in the data set on Escherichia coli [9], 16 µg/mL (≈ 21.4 µM) against Salmonella typhimurium and 16 µg/mL (≈ 21.4 µM) with Klebsiella pneumoniae. Besides, the result with Escherichia coli [10] was Active. The same compound showed a half-life in data set [11] of 68 h.

For the compound `CC[C@H]1OC(=O)[C@H](C)[C@@H](O[C@H]2C[C@@](C)(OC)[C@@H](OC(=O)NCCNC(=O)[C@H]3NC(=O)[C@H]4NC(=O)[C@H](NC(=O)[C@@H]5NC(=O)[C@H](CC(N)=O)NC(=O)[C@H](NC(=O)[C@@H](CC(C)C)NC)[C@H](O)c6ccc(c(Cl)c6)Oc6cc5cc(c6O[C@@H]5O[C@H](CO)[C@@H](O)[C@H](O)[C@H]5O[C@H]5C[C@](C)(N)[C@H](O)[C@H](C)O5)Oc5ccc(cc5Cl)[C@H]4O[C@H]4C[C@](C)(N)[C@@H](O)[C@H](C)O4)c4ccc(O)c(c4)-c4c(O)cc(O)cc43)[C@H](C)O2)[C@H](C)[C@@H](O[C@@H]2O[C@H](C)C[C@H](N(C)C)[C@H]2O)[C@](C)(O)C[C@@H](C)CN(C)[C@H](C)[C@H]2OC(=O)O[C@]21C`, the MIC with Staphylococcus aureus [1] was 1 µg/mL (≈ 0.411 µM); in data set [2], 2 µg/mL (≈ 0.821 µM); in the data set with Staphylococcus aureus [3], 0.06 µg/mL (≈ 0.0246 µM); in the data set with Staphylococcus aureus [4] it was 4 µg/mL (≈ 1.64 µM); in the data set with Staphylococcus aureus [5], 8 µg/mL (≈ 3.28 µM); in the data set with Staphylococcus aureus [6], 8 µg/mL (≈ 3.28 µM). For the same compound, the MIC in the data set with Enterococcus faecium [7] was determined as 1 µg/mL (≈ 0.411 µM); in the data set with Enterococcus faecium [8], 8 µg/mL (≈ 3.28 µM); with Enterococcus faecalis, 16 µg/mL (≈ 6.57 µM); against Streptococcus pneumoniae, 1 µg/mL (≈ 0.411 µM); in the data set on Enterococcus gallinarum, 4 µg/mL (≈ 1.64 µM); against Streptococcus agalactiae, 8 µg/mL (≈ 3.28 µM). In addition, the MIC with Escherichia coli [9], in the data set on Salmonella typhimurium and against Klebsiella pneumoniae was above 32 µg/mL throughout. Moreover, the 50% effect level with Staphylococcus aureus [12] (ED50) was put at a dose of 4.7 mg/kg. In the data set with Staphylococcus aureus [13], the survival at 2.5 mg/kg worked out at 30%. In addition, in the data set with Staphylococcus aureus [14], the survival at 3.5 mg/kg worked out at 20%. The survival at 4.5 mg/kg in the data set on Staphylococcus aureus [15] was 40%. In addition, in the data set on Staphylococcus aureus [16], the survival at 5.5 mg/kg was 70%. For the same compound, the survival at 6.5 mg/kg in the data set with Staphylococcus aureus [17] amounted to 70%. Besides, the survival at 7.5 mg/kg in the data set with Staphylococcus aureus [18] is 80%. For the same compound, the outcome in the data set on Escherichia coli [10] was Active.

Take `CN[C@H](CC(C)C)C(=O)N[C@H]1C(=O)N[C@@H](CC(N)=O)C(=O)N[C@H]2C(=O)N[C@H]3C(=O)N[C@H](C(=O)N[C@H](C(=O)O)c4cc(O)cc(O)c4-c4cc3ccc4O)[C@H](O)c3ccc(c(Cl)c3)Oc3cc2cc(c3O[C@@H]2O[C@H](CO)[C@@H](O)[C@H](O)[C@H]2O[C@H]2C[C@](C)(N)[C@H](O)[C@H](C)O2)Oc2ccc(cc2Cl)[C@H]1O` [VANCOMYCIN]: the MIC is 0.5 µg/mL (≈ 0.345 µM) in data set [2]; 0.25 µg/mL (≈ 0.173 µM) against Staphylococcus aureus [3]; 8 µg/mL (≈ 5.52 µM) with Staphylococcus aureus [5]; 8 µg/mL (≈ 5.52 µM) in the data set with Staphylococcus aureus [6]; above 32 µg/mL against Enterococcus faecium [8]; above 32 µg/mL in the data set on Enterococcus faecalis. Further, the MIC with Streptococcus pneumoniae was 2 µg/mL (≈ 1.38 µM); against Enterococcus gallinarum, 4 µg/mL (≈ 2.76 µM); against Streptococcus agalactiae it was 8 µg/mL (≈ 5.52 µM); against Escherichia coli [9], above 32 µg/mL; against Salmonella typhimurium it was above 32 µg/mL; in the data set on Klebsiella pneumoniae it was above 32 µg/mL. Besides, it took a dose of 4.2 mg/kg to reach the 50% effect level in the data set with Staphylococcus aureus [12] (ED50). Further, in the data set with Staphylococcus aureus [13], the survival at 2.5 mg/kg was determined as 30%. Also, in the data set with Staphylococcus aureus [14], the survival at 3.5 mg/kg came out at 40%. In the data set with Staphylococcus aureus [15], the survival at 4.5 mg/kg was 50%. Further, in the data set with Staphylococcus aureus [16], the survival at 5.5 mg/kg amounted to 70%. In the data set with Staphylococcus aureus [17], the survival at 6.5 mg/kg was 90%. For the same compound, in the data set with Staphylococcus aureus [18], the survival at 7.5 mg/kg is 100%. Besides, the half-life in [19] fell in the range of 6 to 12 h.
